Results published in patent US5580895A, “1,5-benzodiazepine derivatives” (Glaxo SpA, priority 1992, dated 1996).

Key:
[1] = molecular target: T1, CCK-A receptor (Cavia porcellus, UniProt Q63931); test: CCK-A antagonist activity, guinea pig isolated ileum longitudinal muscle myenteric plexus (inhibition of contractile activity of CCK-8); assay type: cell-based
T1 construct: guinea pig isolated ileum longitudinal muscle myenteric plexus preparation; from tissue; host or cells: guinea pig isolated ileum longitudinal muscle-myenteric plexus
T1 sequence (Q63931 1-430): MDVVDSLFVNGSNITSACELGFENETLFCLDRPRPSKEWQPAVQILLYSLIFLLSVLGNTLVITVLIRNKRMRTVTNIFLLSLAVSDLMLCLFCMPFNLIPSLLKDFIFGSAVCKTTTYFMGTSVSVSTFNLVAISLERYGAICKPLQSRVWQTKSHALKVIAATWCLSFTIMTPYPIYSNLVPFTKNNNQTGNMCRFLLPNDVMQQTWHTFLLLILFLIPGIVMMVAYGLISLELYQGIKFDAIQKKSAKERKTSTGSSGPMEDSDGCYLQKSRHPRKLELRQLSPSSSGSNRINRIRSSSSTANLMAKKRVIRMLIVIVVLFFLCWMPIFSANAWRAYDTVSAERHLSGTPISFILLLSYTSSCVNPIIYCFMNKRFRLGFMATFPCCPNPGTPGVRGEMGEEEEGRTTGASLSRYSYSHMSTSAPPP
Method: The preparation and use of guinea-pig isolated ileum longitudinal muscle-myenteric plexus has been described by K-H Buchheit et al in Nauyn-Schmeideberg's Arch. Pharmacol, (1985), 329, p36-41 and by V. L. Lucaites et al (1991) in J. Pharmacol. Exp. Ther., 256, 695-703.
The CCK-A antagonist and CCK-B antagonist activities of compounds of the invention were determined using the guinea pig isolated ileum longitudinal muscle myenteric plexus preparation. The compounds were tested using the procedure G Dal
Forno et al J. Pharmacol. Exp & Ther. 261-1056-1063 1992 and the pKb value for each compound was determined.

[2] = molecular target: T2, CCK-B receptor (Cavia porcellus, UniProt H0VZC5); test: CCK receptor binding, CCK-B (guinea pig cortex assay)
T2 construct: CCK-B receptor (guinea pig cortex assay); from tissue; host or cells: guinea pig cortex
Method: (§1) The greater affinity of the compounds of the invention for the CCK-B receptor over the CCK-A receptor has also been established using the CCK receptor binding assays described by G. Dal Fornos et al., J. Pharmcol. Exp & Ther. 261, 1056-1063, 1992.
(§2) The binding affinity of the compounds of the invention for the CCK-A receptor (Pancreas Assay) and CCK-B receptor (guinea pig cortex assay) was determined using the procedure of G Dal Forno et al J. Pharmacol. Exp & Ther. 261-1056-1063. The pKi values determined with representative compounds of invention were as follows: […]

[3] = molecular target: CCK-A receptor; test: CCK receptor binding, CCK-A (Pancreas Assay)
Method: as §1, §2

[4] = tested on: mice and rats; test: Anxiolytic activity, oral, mice and rats; assay type: in vivo; settings: orally to mice and rats
Description: (§3) The compounds of the invention are essentially non-toxic and therapeutically useful doses.

[5] = tested on: mice and rats; test: Toxicity / untoward effects on oral administration to mice and rats; assay type: in vivo; settings: orally to mice and rats at doses exhibiting anxiolytic activity
Description: as §3

T2 sequence (H0VZC5 entry or part of it): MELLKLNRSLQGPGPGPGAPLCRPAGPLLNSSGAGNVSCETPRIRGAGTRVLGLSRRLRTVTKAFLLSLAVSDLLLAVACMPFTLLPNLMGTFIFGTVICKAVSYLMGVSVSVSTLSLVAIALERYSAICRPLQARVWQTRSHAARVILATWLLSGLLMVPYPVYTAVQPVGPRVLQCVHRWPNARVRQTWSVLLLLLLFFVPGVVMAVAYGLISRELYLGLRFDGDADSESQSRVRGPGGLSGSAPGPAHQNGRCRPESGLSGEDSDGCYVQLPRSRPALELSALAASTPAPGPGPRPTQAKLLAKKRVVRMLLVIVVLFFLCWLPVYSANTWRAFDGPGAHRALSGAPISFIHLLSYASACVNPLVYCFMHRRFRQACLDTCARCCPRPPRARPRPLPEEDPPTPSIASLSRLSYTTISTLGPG

Row | Compound | pKi CCK-A [3] | further results
1 | CC(C)CCN1C(=O)C(NC(=O)Nc2ccccc2)C(=O)N(c2ccccc2)c2ccccc21 (single isomer, unassigned; (+)) [Example 26, (+)-N-[2,4-Dioxo-5-phenyl-1-(3-methylbut-1-yl)-2,3,4,5-tetrahydro-1H-1,5-benzodiazepin-3-yl]-N'-phenylurea] |  | Kb ([1]; read-out: pKb CCK-A (converted)): ≥ 3160 nM
2 | CC(C)CCN1C(=O)C(NC(=O)Nc2cccc(N(C)C)c2)C(=O)N(c2ccccc2F)c2ccccc21 (single isomer, unassigned; (+)) [Example 27, (+)-N-[2,4-Dioxo-5-(2-fluorophenyl)-1-(3-methylbut-1-yl)-2,3,4,5-tetrahydro-1H-1,5-benzodiazepin-3-yl]-N'-[3-(N,N-dimethylamino)phenyl]urea] | 6.83 | Ki [2]: 0.288 nM
3 | O=C(Nc1ccccc1)NC1C(=O)N(CC23CC4CC(CC(C4)C2)C3)c2ccccc2N(c2ccccc2)C1=O (single isomer, unassigned; (+)) [Example 45, (+)-N-[1-(Adamantanmethyl)-2,4-dioxo-5-phenyl-2,3,4,5-tetrahydro-1H-1,5-benzodiazepin-3-yl]-N'-phenylurea] | 5.95 | anxiolytic activity [4]: exhibits anxiolytic activity; untoward effects [5]: no untoward effects were observed
4 | CC(C)CCN1C(=O)C(NC(=O)Nc2cccc(N(C)C)c2)C(=O)N(c2ccccc2F)c2ccccc21 (centres unmarked) [Example 4, N-[2,4-dioxo-5-(2-fluorophenyl)-1-(3-methylbut-1-yl)-2,3,4,5-tetrahydro-1H-1,5-benzodiazepin-3-yl]-N'-(3-dimethylamino)phenylurea] | 6.9 | 
5 | CC(C)(C)C(O)CN1C(=O)C(NC(=O)Nc2ccccc2)C(=O)N(c2ccccc2F)c2ccccc21 (centres unmarked) [Example 7A, N-[1-(3,3-Dimethyl-2-hydroxybut-1-yl)-2,4-dioxo-5-(2-fluorophenyl)-2,3,4,5-tetrahydro-1H-1,5-benzodiazepin-3-yl]-N'-phenylurea] | 6.33 | 
6 | CC(C)CCN1C(=O)C(NC(=O)Nc2ccccc2)C(=O)N(c2ccccc2)c2cc(Cl)ccc21 (centres unmarked) [Example 9, N-[7-Chloro-2,4-dioxo-1-(3-methylbut-1-yl)-5-phenyl-2,3,4,5-tetrahydro-1H-1,5-benzodiazepin-3-yl]-N'-phenylurea] | 6.02 | 
7 | CC(C)CCN1C(=O)C(NC(=O)Nc2ccccc2)C(=O)N(c2ccccc2)c2cc(Cl)c(Cl)cc21 (centres unmarked) [Example 11, N-[7,8-dichloro-2,4-Dioxo-1-(3-methylbut-1-yl)-5-phenyl-2,3,4,5-tetrahydro-1H-1,5-benzodiazepin-3-yl]-N'-phenylurea] | 5.80 | 
8 | O=C(Nc1ccccc1)NC1C(=O)N(CC23CC4CC(CC(C4)C2)C3)c2ccccc2N(c2ccccc2)C1=O (centres unmarked) [Example 14, N-[1-(1-Adamantyl)methyl-2,4-dioxo-5-phenyl-2,3,4,5-tetrahydro-1H-1,5-benzodiazepin-3-yl]-N'-phenylurea] | 6.15 | 
9 | CC(C)(C)CCN1C(=O)C(NC(=O)Nc2ccccc2)C(=O)N(c2ccccc2)c2ccccc21 (centres unmarked) [Example 16, N-[1-(3,3-Dimethylbutyl)-2,4-dioxo-5-phenyl-2,3,4,5-tetrahydro-1H-1,5-benzodiazepin-3-yl]-N'-phenylurea] | 6.95 | 
10 | CC(C)CCN1C(=O)C(NC(=O)Nc2ccccc2)C(=O)N(c2ccccc2)c2ccccc21 (centres unmarked) [Example 25, N-[2,4-Dioxo-5-phenyl-1-(3-methylbut-1-yl)-2,3,4,5-tetrahydro-1H-1,5-benzodiazepin-3-yl]-N'-phenylurea] |  | pKb CCK-A [1]: < 6.0
11 | CN(C)c1ccc(NC(=O)NC2C(=O)N(CCC3CCCC3)c3ccccc3N(c3ccccc3F)C2=O)cc1 (centres unmarked) [Example 30, N-[1-(2-cyclopentyl-ethyl)-2,4-dioxo-5-(2-fluorophenyl)-2,3,4,5-tetrahydro-1H-1,5-benzodiazepin-3-yl]-N'-[4-(dimethylamino)phenyl]urea] | 7.00 | 
12 | O=C(Nc1ccccc1)NC1C(=O)N(CC2CC3C=CC2C3)c2ccccc2N(c2ccccc2)C1=O (centres unmarked) [Example 31, N-[1-(Bicyclo[2.2.1]-5-heptene-2-ylmethyl)-2,4-dioxo-5-phenyl-2,3,4,5-tetrahydro-1H-1,5-benzodiazepin-3-yl]-N'-phenylurea] | 6.76 | 
13 | O=C(Nc1cccc([N+](=O)[O-])c1)NC1C(=O)N(CC23CC4CC(CC(C4)C2)C3)c2ccccc2N(c2ccccc2)C1=O (centres unmarked) [Example 39, N-[1-(1-Adamantylmethyl)-2,4-dioxo-5-phenyl-2,3,4,5-tetrahydro-1H-1,5-benzodiazepin-3-yl]-N'-(3-nitrophenyl)urea] | 6.52 | 
14 | CCOC(=O)c1cccc(NC(=O)NC2C(=O)N(CC34CC5CC(CC(C5)C3)C4)c3ccccc3N(c3ccccc3)C2=O)c1 (centres unmarked) [Example 41, N-[1-(1-Adamantylmethyl)-2,4-dioxo-5-phenyl-2,3,4,5-tetrahydro-1H-1,5-benzodiazepin-3-yl]-N'-(3-ethoxycarbonylphenyl)urea] | 6.09 | 
